Reference: patent publication US5563277A, “Process for preparing benzyl-substituted rhodanine derivatives” (Eli Lilly and Company, priority 1994, dated 1996)

Tested on: Acetic Acid Induced Colitis
Test: Inhibition of Acetic Acid Induced Colitis
Type: in vivo, Male Sprague-Dawley rats
Conditions: rat; 30 mg/kg oral, 2 h before 2 ml of 2.5% acetic acid intracolonic enema, second dose 6 h after enema; colon lesions scored 0-4 twenty four hours later vs vehicle
Experimental: As noted above, the present invention provides a method of treating inflammatory bowel disease in mammals.
Male Sprague-Dawley rats from Charles River Laboratories, Portage, Mich. (weight approximately 250 g) were dosed orally with test compound (30 mg/kg) or vehicle (control). Two hours after dosing, each animal received 2 ml of a 2.5% acetic acid intracolonic enema via a cannula, the tip of which was placed 8 cm above the anal verge. This concentration of acetic acid produced a severe inflammatory response in the colon characterized by rectal bleeding, diarrhea, epithelial erosions and destructions of crypts and gland cells. Six hours from the enema the test animals were then given a second dose of test compound or vehicle. Twenty four hours later the test and control animals were killed and the distal ten centimeters of the colon were removed and opened longitudinally. The tissue lesions contained within the removed, opened, section of colon were scored by three independent blinded observers on a scale of 0 to 4 (zero=normal, four=worst inflammation). In each test group 5-7 rats were used. Test results from animals given test compound dissolved in vehicle were compared with test results from animals given vehicle alone in order to determine the percentage of lesion inhibition attributable to the test compound.

## C[C@H](c1ccccc1)N1CS[C@H](Cc2cc(C(C)(C)C)c(O)c(C(C)(C)C)c2)C1=O [(3αR,5R)-5-[[3,5-bis(1,1-dimethylethyl)-4-hydroxyphenyl]methyl]-3-(1-phenylethyl)-4-thiazolidinone]
  % Inhibition (percentage of lesion inhibition): 30%

## COC(=O)c1ccc(CN2CSC(Cc3cc(C(C)(C)C)c(O)c(C(C)(C)C)c3)C2=O)cc1 (stereo not shown) [5-[[3,5-bis(1,1-dimethylethyl)-4-hydroxyphenyl]methyl]-3-(carbomethoxybenzyl)-4-thiazolidinone]
  % Inhibition (percentage of lesion inhibition): 11%

## CC(C)(C)c1cc(CC(S)C(=O)O)cc(C(C)(C)C)c1O (stereo not shown) [3-[3,5-bis(1,1-dimethylethyl)-4-hydroxyphenyl]-2-mercaptopropanoic acid]
  % Inhibition (percentage of lesion inhibition): 18%

## C[C@H](c1ccccc1)N1CS[C@@H](Cc2cc(C(C)(C)C)c(O)c(C(C)(C)C)c2)C1=O [(3αR, 5S)-5-[[3,5-bis (1,1-dimethylethyl)-4-hydroxyphenyl]methyl]-3-(1-phenylethyl)-4-thiazolidinone]
  % Inhibition (percentage of lesion inhibition): 36%
